The source of these data is patent US11440887B2, “Substituted 1,2,3,4-tetrahydroquinolines as inhibitors of repair enzyme 8-oxoguanine deoxyribonucleic acid glycosylase activity” (The Board of Trustees of the Leland Stanford Junior …, priority 2017, dated 2022).

One data set addresses OGG1 (Homo sapiens (Human), UniProt O15527). As to the kind of experiment: OGG1 inhibitor assay with fluorogenic OGR1 probe (base excision, initial rates). It is filed as biochemical. On the procedure: Methods: Synthesized compounds and hOGG1 (100 nM) were incubated in NEBuffer 4 (1×) with BSA (1×) at 37° C. (15 min) in 100 μL reaction volumes in a black 96-well plate. (See, e.g., Edwards, S. K., et al., ChemBioChem 2015, 16, 1637-1646, the disclosure of which is incorporated herein by reference.) After that, OGR1 (1.2 μM) was added to the reaction mixture. Fluorescence at 460 nm was measured on a Thermo Fluoroskan Ascent FL fluorescence plate reader (λex=355 nm). The slope of initial rate (12 min) was calculated, and % of control was used for inhibition activity. BSA, hOGG1 and NEBuffer 4 were purchased from New England Biolabs and used. UltraPure Distilled Water (Invitrogen) was purchased and used for the assay.

The subject of a further data set is HeLa cells. Briefly: MTT assay, HeLa. The data set is classed as cell-based, human. The conditions noted are these: 24 h. The protocol:
(§1) Methods: HEK293T cells (concentration of 1.6×10^4 cells per well) and HeLa cells (concentration of 1.2×10^4 cells per well) were seeded to 96-well plate in supplemented DMEM culture medium (10% FBS, 100 U Pen./Strep.) and incubated for 30 h (HEK293T cells) and 16 h (HeLa cells) at +37° C. and 5% CO2. […] After the incubation period, 10 μL of the MTT labeling reagent (final concentration 0.5 mg/ml) was added to each well, and incubated at +37° C. and 5%. 100 μl of the solubilization solution was added into each well, and incubated for 20 h at +37° C. and 5%. Absorbance of the samples was measured by using a microplate reader Tecan Infinite M1000 at 550, and 650 nm. […] In the rest of the samples (10 μM, 1 μM, 100 nM, and 10 nM) concentration of DMSO was at the level of 1%. The controls were prepared: Ctrl—cells cultured only in the supplemented DMEM; Ctrl 5% DMSO—cells cultured in 5% DMSO in the supplemented DMEM; Ctrl 1% DMSO—cells cultured in 1% DMSO in the supplemented DMEM.
On the technique in general: Tetrazolium assays rely on reduction of a dye to a coloured formazan, in cell work by metabolically active cells.

Data set [1] concerns DUT (deoxyuridine 5′-triphosphate nucleotidohydrolase). As to conditions: 20 μM.
A further data set has as its system HEK293T cells. As to the kind of experiment: MTT assay, HEK293T. The data set is classed as cell-based, human. The conditions noted are these: 24 h. On the procedure:
as §1

Sequence of OGG1 (O15527 whole entry): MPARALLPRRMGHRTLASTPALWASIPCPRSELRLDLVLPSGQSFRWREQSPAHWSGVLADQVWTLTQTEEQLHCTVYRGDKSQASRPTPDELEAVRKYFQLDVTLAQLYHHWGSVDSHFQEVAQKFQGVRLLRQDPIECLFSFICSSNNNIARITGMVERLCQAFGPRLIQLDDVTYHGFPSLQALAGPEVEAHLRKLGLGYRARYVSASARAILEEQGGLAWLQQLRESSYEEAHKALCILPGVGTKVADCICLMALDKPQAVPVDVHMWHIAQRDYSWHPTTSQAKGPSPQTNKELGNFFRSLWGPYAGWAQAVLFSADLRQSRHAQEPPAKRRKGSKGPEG

The IC50 is the concentration at which inhibition is half-maximal. The low end stands for higher potency, the high end for lower potency. `NC(=O)c1cccc(-c2ccc(S(=O)(=O)Nc3ccc4c(c3)N(C(=O)C3CC3)CCC4)cc2)c1` [Compound 41]: the “Enzyme activity, % of control at 200 nM” value on OGG1 (200 nM compound, ratio of initial rate slope (first 12 min) to no-compound control) is recorded as 39 ± 2.5 % of control. At OGG1 (2 μM compound, ratio of initial rate slope (first 12 min) to no-compound control), the “Enzyme activity, % of control at 2 μM” value was 4.8 % of control. The same compound yielded a half-inhibitory concentration (IC50) at OGG1 (initial rates method) of 59 nM. Besides, the “cytotoxicity by MTT assay” value with HeLa cells (10 nM to 10 μM) and in the data set with HEK293T cells (10 nM to 10 μM) was “little or no cytotoxicity” each time. For the same compound, the “toxicity by MTT assay” value in the data set with HeLa cells (100 μM) and in the data set with HEK293T cells (100 μM) was 30-50% in each case. In data set [1], the “activity of compound against DUT (selectivity)” value is on record as “low”.
